The text below walks through data of ChEMBL document CHEMBL5033995, “Discovery and Early Clinical Development of LY3202626, a Low-Dose, CNS-Penetrant BACE Inhibitor” (J Med Chem, 2021).

A short description of series [1]: Lipophilicity, log P of the compound. It counts as physicochemical. The settings on record: octanol/water.
Series [2] in a line: Permeability in MDCK cells. It is filed as ADME, cell-based, Canis lupus familiaris. The settings on record: dog, read-out: permeability.
A short description of series [3]: Dissociation constant, pKa of compound. It is filed as physicochemical.
Series [4] in a line: Drug accumulation in human HepG2 cells lysosomes assessed as maximum fluorescence response after 24 hrs by Lysotracker Green DND-26 dye based assay. It is filed as ADME, cell-based. The settings on record: hepg2, 24 h.
Series [5] in a line: Stability in mouse liver microsomes at 2 uM measured upto 30 mins in presence of NADPH by LC-MS/MS analysis. The settings on record: read-out: Stability. It counts as ADME, Microsome. A general note: Liver microsomes are vesicles of endoplasmic reticulum, rich in cytochrome P450 enzymes.
The nature of series [6]: Stability in dog liver microsomes at 2 uM measured upto 30 mins in presence of NADPH by LC-MS/MS analysis. It is filed as ADME, Canis lupus familiaris, Microsome. The settings on record: read-out: Stability.
Series [7] can be described thus: Stability in rat liver microsomes at 2 uM measured upto 30 mins in presence of NADPH by LC-MS/MS analysis. The settings on record: read-out: Stability. It is filed as ADME, Microsome.
Series [8] in a line: Stability in human liver microsomes at 2 uM measured upto 30 mins in presence of NADPH by LC-MS/MS analysis. It is filed as ADME, Microsome. The settings on record: read-out: Stability.
A short description of series [9]: Volume of distribution at steady state in rat at 2 mg/kg, iv by LC-MS/MS analysis. The settings on record: in vivo, read-out: Vdss. It counts as ADME, organism-based.
Series [10] is described as follows: Clearance in dog at 1 mg/kg, iv by LC-MS/MS analysis. The settings on record: in vivo. It is filed as ADME, organism-based, Canis lupus familiaris.
Series [11] in a line: Ratio of free drug concentration in CSF to plasma of dog. It is filed as ADME, Canis lupus familiaris. The settings on record: CSF and plasma.
A short description of series [12]: Clearance in rat at 2 mg/kg, iv by LC-MS/MS analysis. It is filed as ADME, organism-based. The settings on record: in vivo.
Series [13] in a line: Volume of distribution at steady state in dog at 1 mg/kg, iv by LC-MS/MS analysis. It counts as ADME, organism-based, Canis lupus familiaris. The settings on record: in vivo, read-out: Vdss.
Series [14] can be described thus: Bioavailability in rat. The settings on record: in vivo. It is filed as ADME, organism-based.
A short description of series [15]: Oral clearance in human. It counts as ADME.
Another series in a line: clinical. The settings on record: human, CSF and plasma.

One may read the logP as a log measure of how a compound divides between an organic and an aqueous phase. One may read the pKa as the pH at which an ionisable group is half protonated. A word on the clearance: it is the rate of elimination divided by the concentration. High values mean efficient removal, low ones inefficient removal. By bioavailability is commonly meant dose-corrected exposure relative to a reference, in per cent. Low readings indicate little systemic uptake, high ones much systemic uptake. As a reminder, the CL/F is the apparent clearance, not corrected for the fraction that reaches the circulation.

As to `Cl.Cl.NC1=N[C@@]2(c3cccs3)CN(c3ncccn3)C[C@H]2CS1`, the logP in series [1] is 1.9. Moreover, in series [2], the Papp amounted to 59 ×10⁻⁶ cm/s. Besides, the pKa in series [3] came to 7.6.

In turn, `C[C@@]1(c2cc(-c3cncnc3)c(F)cc2F)CCSC(N)=N1` [LY-2811376] came in with a logP in series [1] of 2.9. The Rmax in series [4] is listed as 3364. Also, the Papp in series [2] amounted to 60 ×10⁻⁶ cm/s. The compound also had a pKa in series [3] of 8.8.

Regarding `C[C@@H]1C[C@H]1CNC(=O)[C@@H]1C[C@H]1[C@]12COC[C@H]1CSC(N)=N2`, the logP in series [1] was determined as 0.8. Also, the remaining at 0.5 h, 2 µM was 23% in [5], 8% in series [6], 84% in [7] and 19% in series [8]. The Papp in [2] is 14 ×10⁻⁶ cm/s. The compound further showed a pKa in [3] of 8.

For `Cl.NC1=N[C@@]2(c3ccns3)CN(c3ncc(F)cn3)C[C@H]2CS1`, the Vd in series [9] is 2.87 L/kg; in [13], 2.1 L/kg. For the same compound, the clearance was determined as 6 mL/min/kg in [10] and 53.2 mL/min/kg in series [12]. In [1], this compound registered a logP of 1.3. Besides, in series [4], the Rmax is on record as 20. The Papp in series [2] was determined as 59 ×10⁻⁶ cm/s. Besides, the Kp uu in series [11] was found to be 1. In series [3], this compound came in with a pKa of 6.4.

As for `COc1cnc(C(=O)Nc2ccc(F)c([C@]34CN(c5ncc(F)cn5)C[C@H]3CSC(N)=N4)c2)cn1`, the Vd was determined as 5.2 L/kg in series [9] and 0.78 L/kg in [13]. The clearance in series [10] was 5.2 mL/min/kg; in series [12], 20 mL/min/kg. Moreover, the logP in [1] came out at 3.2. In series [14], this compound showed a bioavailability of 47%. The compound further showed a CL/F in series [15] of 26 mL/min/kg. Also, the remaining at 0.5 h, 2 µM in series [5] turned out to be 27%; in [6], 50%; in series [7], 7%; in series [8], 12%. Besides, the Papp in [2] came to 19 ×10⁻⁶ cm/s. The values for the Kp uu (in [11]; in “clinical”) were 0.9 and 1, respectively. Besides, the pKa in [3] worked out at 7.6.

Take `C[C@@H]1C[C@H]1CNC(=O)[C@@H]1C[C@H]1[C@]12CN(c3ncccn3)C[C@H]1CSC(N)=N2`: the logP in series [1] is 2. For the same compound, the remaining at 0.5 h, 2 µM in series [5] is 33%; in [6], 28%; in series [7] it was 55%; in [8] it was 13%. The Papp in series [2] worked out at 8 ×10⁻⁶ cm/s. Further, the pKa in series [3] was found to be 8.

In series [1], `Cl.N#Cc1ccc([C@]23CN(c4ncc(F)cn4)C[C@H]2CSC(N)=N3)s1` returned a logP of 2.3. For the same compound, the Rmax in series [4] turned out to be 91. In addition, the pKa in series [3] was determined as 6.6.

In the case of `C[C@@H]1C[C@H]1COC(C)(C)[C@@H]1C[C@H]1[C@]12CN(c3ncccn3)C[C@H]1CSC(N)=N2`, the remaining at 0.5 h, 2 µM in series [5] worked out at 98%; in series [6], 79%; in series [7] it was 98%; in [8], 31%. The Papp in series [2] is 36 ×10⁻⁶ cm/s.

In turn, `Cl.NC1=N[C@@]2(c3cnccn3)CN(c3ncc(F)cn3)C[C@H]2CS1` came in with a logP in [1] of 0.8. Further, the Rmax in series [4] came to 59. In [2], the Papp turned out to be 54 ×10⁻⁶ cm/s. The compound also gave a pKa in series [3] of 7.1.

`Cl.NC1=N[C@@]2(c3cccs3)CN(c3ncc(F)cn3)C[C@H]2CS1` yielded a logP in series [1] of 2.4. Further, the Rmax in series [4] is on record as 4090. Further, the Papp in series [2] was determined as 60 ×10⁻⁶ cm/s. The same compound registered a pKa in series [3] of 7.5.

As for `NC1=N[C@@]2(c3cc(NC(=O)c4ccc(F)cn4)ccc3F)CN(c3ncc(F)cn3)C[C@H]2CS1` (relative stereo), the Vd in series [9] was 2.5 L/kg; in series [13], 1.1 L/kg. Also, the clearance in [10] worked out at 1.6 mL/min/kg; in [12] it was 7.8 mL/min/kg. This compound came in with a logP in [1] of 3.1. For the same compound, the bioavailability in series [14] stood at 72%. Also, the remaining at 0.5 h, 2 µM in series [5] amounted to 25%; in series [6] it was 8%; in series [7], 16%; in series [8] it was 13%. Further, the Papp in series [2] is 33 ×10⁻⁶ cm/s. In series [11], the Kp uu worked out at 0.1. Moreover, the pKa in series [3] was found to be 7.9.

Consider `NC1=N[C@@]2(c3cc(NC(=O)c4ncc(F)cc4F)ccc3F)CN(c3ncc(F)cn3)C[C@H]2CS1`, for which the Vd in series [9] is 2.2 L/kg; in series [13], 0.52 L/kg. Also, the clearance in series [10] worked out at 2.7 mL/min/kg; in series [12] it was 15 mL/min/kg. For the same compound, the logP in series [1] stood at 2.8. Further, in series [14], the bioavailability is 55%. The remaining at 0.5 h, 2 µM in [5] was determined as 22%; in series [6], 7%; in series [7], 7%; in [8], 13%. In addition, in series [2], the Papp worked out at 30 ×10⁻⁶ cm/s. Besides, the Kp uu in series [11] came out at 0.2. The same compound showed a pKa in series [3] of 7.7.

As to `NC1=N[C@@]2(c3cc(NC(=O)c4ccc(F)cn4)ccc3F)COC[C@H]2CS1` [LY-2886721], the Vd in series [9] came to 10.4 L/kg; in [13] it was 2.3 L/kg. Also, the clearance was found to be 4.9 mL/min/kg in series [10] and 94 mL/min/kg in [12]. Besides, the logP in series [1] amounted to 2.1. The Rmax in [4] turned out to be 7863. This compound gave a bioavailability in series [14] of 30%. In addition, the remaining at 0.5 h, 2 µM was determined as 33% in [5], 0% in series [6], 19% in series [7] and 11% in series [8]. The Papp in series [2] was found to be 55 ×10⁻⁶ cm/s. Further, the Kp uu in series [11] is 0.9. For the same compound, the pKa in series [3] stood at 7.7.
